Results as given in the CheMixHub drug solubility set.

Assay: xn = mol fraction of the nth substance listed, in the solute-free solvent

CC(N)C(=O)O (configuration not stated) + O + CCO
solubility (g/100 g solution)
Settings | x2 = 0.1 | x2 = 0.2 | x2 = 0.3 | x2 = 0.4 | x2 = 0.5 | x2 = 0.6 | x2 = 0.7 | x2 = 0.8 | x2 = 0.9
283.15 K | 0.0667 | 0.0909 | 0.102 | 0.126 | 0.31 | 0.534 | 1.1 | 1.98 | 4.36
293.15 K | 0.0741 | 0.0951 | 0.11 | 0.185 | 0.389 | 0.66 | 1.35 | 2.59 | 5.5
303.15 K | 0.0895 | 0.102 | 0.127 | 0.245 | 0.454 | 0.83 | 1.68 | 3.23 | 6.66
313.15 K | 0.0998 | 0.114 | 0.136 | 0.268 | 0.573 | 1.05 | 2.12 | 3.96 | 7.99
323.15 K | 0.104 | 0.124 | 0.196 | 0.347 | 0.688 | 1.37 | 2.62 | 4.97 | 9.53

CC(N)C(=O)O (configuration not stated) + O + CO
solubility (g/100 g solution)
Settings | x2 = 0.1 | x2 = 0.2 | x2 = 0.3 | x2 = 0.4 | x2 = 0.5 | x2 = 0.6 | x2 = 0.7 | x2 = 0.8 | x2 = 0.9
283.15 K | 0.123 | 0.167 | 0.315 | 0.44 | 0.705 | 1.21 | 1.99 | 3.46 | 6.52
293.15 K | 0.142 | 0.222 | 0.377 | 0.571 | 0.899 | 1.53 | 2.53 | 4.26 | 7.7
303.15 K | 0.159 | 0.281 | 0.434 | 0.667 | 1.11 | 1.88 | 3.07 | 5.17 | 8.92
313.15 K | 0.178 | 0.331 | 0.492 | 0.816 | 1.39 | 2.35 | 3.85 | 6.26 | 10.4
323.15 K | 0.193 | 0.424 | 0.627 | 1.03 | 1.77 | 2.95 | 4.69 | 7.21 | 11.9

Cc1ncc(C[n+]2csc(CCO)c2C)c(N)n1.O=[N+]([O-])[O-] + O + CO
solubility (g/100 g solution)
Settings | x2 = 0.1 | x2 = 0.2 | x2 = 0.3 | x2 = 0.4 | x2 = 0.5 | x2 = 0.6 | x2 = 0.7 | x2 = 0.8 | x2 = 0.9
278.15 K | 0.197 | 0.323 | 0.483 | 0.678 | 0.884 | 1.03 | 1.17 | 1.18 | 1.2
283.15 K | 0.221 | 0.371 | 0.566 | 0.801 | 1.05 | 1.24 | 1.41 | 1.43 | 1.44
288.15 K | 0.273 | 0.429 | 0.66 | 0.918 | 1.24 | 1.47 | 1.67 | 1.68 | 1.7
293.15 K | 0.35 | 0.52 | 0.79 | 1.08 | 1.47 | 1.77 | 2.02 | 2.04 | 2.08
298.15 K | 0.422 | 0.636 | 0.951 | 1.34 | 1.77 | 2.19 | 2.5 | 2.54 | 2.54
303.15 K | 0.518 | 0.786 | 1.17 | 1.64 | 2.18 | 2.68 | 3.06 | 3.14 | 3.1
308.15 K | 0.657 | 0.983 | 1.46 | 1.96 | 2.64 | 3.23 | 3.75 | 3.85 | 3.77
313.15 K | 0.812 | 1.24 | 1.81 | 2.52 | 3.25 | 3.94 | 4.6 | 4.72 | 4.55

COc1cc2c(cc1OC)-c1cc3ccc(OC)c(OC)c3c[n+]1CC2.[Cl-] + OCCO + O
solubility (g/100 g solution)
Settings | 283.15 K | 288.15 K | 293.15 K | 298.15 K | 303.15 K | 308.15 K | 313.15 K | 318.15 K | 323.15 K | 328.15 K
x2 = 0.03125 | 1.2 | 1.46 | 1.83 | 2.28 | 2.8 | 3.39 | 4.08 | 4.86 | 5.75 | 6.75
x2 = 0.06767 | 1.25 | 1.51 | 1.89 | 2.35 | 2.88 | 3.48 | 4.19 | 4.98 | 5.89 | 6.91
x2 = 0.1107 | 1.33 | 1.6 | 1.99 | 2.47 | 3.02 | 3.65 | 4.37 | 5.2 | 6.13 | 7.19
x2 = 0.1622 | 1.41 | 1.69 | 2.09 | 2.58 | 3.15 | 3.8 | 4.55 | 5.4 | 6.36 | 7.45
x2 = 0.225 | 1.47 | 1.78 | 2.23 | 2.74 | 3.31 | 3.98 | 4.71 | 5.6 | 6.54 | 7.6
x2 = 0.3034 | 1.49 | 1.82 | 2.23 | 2.74 | 3.27 | 3.96 | 4.69 | 5.57 | 6.5 | 7.55
x2 = 0.4038 | 1.45 | 1.79 | 2.16 | 2.64 | 3.18 | 3.77 | 4.46 | 5.28 | 6.2 | 7.26
x2 = 0.5373 | 1.36 | 1.65 | 2.01 | 2.43 | 2.92 | 3.5 | 4.22 | 4.93 | 5.81 | 6.75
x2 = 0.7232 | 1.23 | 1.46 | 1.79 | 2.17 | 2.63 | 3.15 | 3.76 | 4.44 | 5.21 | 6.07

Cc1[nH]c(=O)c(C#N)cc1-c1ccncc1 + OCCO + O
solubility (g/100 g solution)
Settings | 278.15 K | 283.15 K | 288.15 K | 293.15 K | 298.15 K | 303.15 K | 308.15 K | 313.15 K | 318.15 K | 323.15 K
x2 = 0.03125 | 0.000882 | 0.00106 | 0.00125 | 0.00147 | 0.00171 | 0.00196 | 0.00222 | 0.00252 | 0.00285 | 0.00321
x2 = 0.06767 | 0.00131 | 0.00157 | 0.00185 | 0.00216 | 0.00252 | 0.00288 | 0.00326 | 0.0037 | 0.00417 | 0.0047
x2 = 0.1107 | 0.00189 | 0.00227 | 0.00266 | 0.00311 | 0.00362 | 0.00413 | 0.00467 | 0.00529 | 0.00595 | 0.0067
x2 = 0.1622 | 0.00264 | 0.00316 | 0.0037 | 0.00432 | 0.00502 | 0.00573 | 0.00647 | 0.00732 | 0.00821 | 0.00925
x2 = 0.225 | 0.00351 | 0.0042 | 0.00493 | 0.00575 | 0.00666 | 0.0076 | 0.00858 | 0.00971 | 0.0109 | 0.0123
x2 = 0.3034 | 0.00434 | 0.00527 | 0.00628 | 0.00732 | 0.00847 | 0.00967 | 0.0109 | 0.0123 | 0.0138 | 0.0155
x2 = 0.4038 | 0.00509 | 0.00622 | 0.00737 | 0.00855 | 0.00992 | 0.0116 | 0.0131 | 0.0148 | 0.0165 | 0.0186
x2 = 0.5373 | 0.00576 | 0.00696 | 0.00818 | 0.00966 | 0.0113 | 0.0129 | 0.0147 | 0.0167 | 0.0186 | 0.0211
x2 = 0.7232 | 0.00605 | 0.0074 | 0.00868 | 0.0102 | 0.0118 | 0.0135 | 0.0153 | 0.0174 | 0.0195 | 0.0223

Nc1nccnc1Cl + OCCO + O
solubility (g/100 g solution)
Settings | 278.15 K | 283.15 K | 288.15 K | 293.15 K | 298.15 K | 303.15 K | 308.15 K | 313.15 K | 318.15 K | 323.15 K
x2 = 0.03125 | 0.0244 | 0.0327 | 0.0431 | 0.0542 | 0.0663 | 0.0791 | 0.0925 | 0.108 | 0.123 | 0.139
x2 = 0.06767 | 0.0337 | 0.045 | 0.0589 | 0.0739 | 0.0903 | 0.108 | 0.126 | 0.147 | 0.167 | 0.189
x2 = 0.1107 | 0.0487 | 0.0645 | 0.0838 | 0.105 | 0.128 | 0.153 | 0.178 | 0.208 | 0.236 | 0.267
x2 = 0.1622 | 0.0695 | 0.0914 | 0.118 | 0.147 | 0.179 | 0.213 | 0.25 | 0.29 | 0.33 | 0.372
x2 = 0.225 | 0.09 | 0.119 | 0.153 | 0.192 | 0.235 | 0.28 | 0.328 | 0.382 | 0.435 | 0.491
x2 = 0.3034 | 0.113 | 0.148 | 0.19 | 0.239 | 0.291 | 0.347 | 0.408 | 0.474 | 0.541 | 0.61
x2 = 0.4038 | 0.13 | 0.17 | 0.218 | 0.273 | 0.334 | 0.399 | 0.469 | 0.546 | 0.625 | 0.705
x2 = 0.5373 | 0.139 | 0.182 | 0.232 | 0.292 | 0.357 | 0.427 | 0.505 | 0.589 | 0.676 | 0.764
x2 = 0.7232 | 0.142 | 0.182 | 0.235 | 0.297 | 0.364 | 0.438 | 0.519 | 0.607 | 0.699 | 0.792
